# Active and inactive are the calls of the source. No cut-off for these calls is given here.
# What was measured:
# [1] = Inhibition of GST-tagged DLK (1 to 520 residues)(unknown origin) using MKK4 as substrate preincubated for 60 mins followed by substrate/ATP addition measured after 30 mins by HTRF assay; design: species or system Homo sapiens
# [2] = Inhibition of DLK in C57/Bl6 mouse DRG neuron model of paclitaxel-induced axon degeneration assessed as decrease in p-cJun level measured after 20 hrs by immunofluorescence based analysis; type: cell-based
# [3] = Protection against paclitaxel-induced axon degeneration in C57/Bl6 mouse DRG neurons at 0.74 uM measured after 72 hrs by immunofluorescence based analysis relative to control; type: functional; details: C57/Bl6, DRG neuron
# [4] = Inhibition of human DLK transfected in HEK293-T-REx cells assessed as decrease in JNK phosphorylation incubated for 5 hrs by HTRF assay; type: cell-based
# [5] = Inhibition of GST-tagged LZK (1 to 966 residues)(unknown origin) using MKK4 as substrate preincubated for 60 mins followed by substrate/ATP addition measured after 30 mins by HTRF assay; design: species or system Homo sapiens
# [6] = Protection against paclitaxel-induced axon degeneration in C57/Bl6 mouse DRG neurons measured after 72 hrs by immunofluorescence based analysis; type: functional, cell-based; details: drg neuron
# [7] = Efflux ratio in MDCK-MDR1 cells; type: ADME, cell-based, Canis lupus familiaris; details: dog
# [8] = Apparent permeability across apical to basal side in MDCK-MDR1 cells; type: ADME, cell-based, Canis lupus familiaris; details: dog
# [9] = Half life in mouse at 5 mg/kg, po; type: ADME, organism-based; details: in vivo
# [10] = Oral bioavailability in mouse at 5 mg/kg; type: ADME, organism-based; details: in vivo
# [11] = Ratio of unbound drug concentration in brain to plasma of mouse at 5 mg/kg; type: ADME, organism-based; details: brain and plasma, read-out: K(p,uu,brain)
# [12] = Intrinsic clearance in human liver microsomes; type: ADME, Microsome; details: read-out: CLH
# [13] = Kinetic solubility of compound at pH 6.8; type: physicochemical; details: buffer, read-out: Kinetic_solubility
# [14] = Energy of neutralization, pKa of compound; type: physicochemical
# [15] = Clearance in mouse at 5 mg/kg, po; type: ADME, organism-based; details: in vivo
# [16] = target: Voltage-gated inwardly rectifying potassium channel KCNH2 (Homo sapiens, UniProt Q12809); test: Inhibition of hERG by patch-clamp method; type: toxicity
# [17] = Intrinsic clearance in mouse liver microsomes; type: ADME, Microsome; details: read-out: CLH
# CYP3A4 = CYP3A4 (Homo sapiens, UniProt P08684); test: Time dependent inhibition of CYP3A4 (unknown origin) at 30 uM incubated for 30 mins relative to control; type: ADME; details: read-out: TDI
# DRG neuron = test: Protection against paclitaxel-induced axon degeneration in C57/Bl6 mouse DRG neurons at 1 uM measured after 72 hrs by immunofluorescence based analysis; type: functional, cell-based
# CYP3A [18] = target: T1, CYP3A (Homo sapiens, UniProt P08684+P20815+P24462+Q9HB55); test: Binding affinity to CYP3A in human liver microsomes assessed as inhibition constant; type: ADME, Microsome
# CYP3A [19] = target: T1, CYP3A; test: Binding affinity to CYP3A in human liver microsomes assessed as inactivation constant; type: ADME, Microsome
# [20] = Clearance in IV-dosed mouse; type: ADME; details: in vivo
# [21] = Oral bioavailability in mouse; type: ADME, organism-based; details: in vivo
# [22] = Intrinsic clearance in dog liver microsomes; type: ADME, Canis lupus familiaris, Microsome; details: read-out: CLH
# [23] = Drug metabolism in PO-dosed dog plasma assessed as formation of N-methylated metabolites; type: ADME, Canis lupus familiaris
# [24] = Clearance in IV-dosed dog; type: ADME, Canis lupus familiaris; details: in vivo
# [25] = Half life in IV-dosed mouse; type: ADME; details: in vivo
# [26] = Clearance in IV-dosed cynomolgous monkey; type: ADME, Macaca fascicularis; details: cynomolgus monkey, in vivo
# [27] = Half life in IV-dosed dog; type: ADME, Canis lupus familiaris; details: in vivo
# [28] = Clearance in IV-dosed rat; type: ADME; details: in vivo
# [29] = Volume of distribution at steady state in IV-dosed mouse; type: ADME; details: in vivo, read-out: Vdss
# [30] = Drug metabolism in dog hepatocytes assessed as formation of N-methylated metabolites; type: ADME, cell-based, Canis lupus familiaris, Hepatocyte
# [31] = Oral bioavailability in rat; type: ADME, organism-based; details: in vivo
# [32] = Oral bioavailability in cynomolgous monkey; type: ADME, organism-based, Macaca fascicularis; details: cynomolgus monkey, in vivo
# [33] = Volume of distribution at steady state in IV-dosed dog; type: ADME, Canis lupus familiaris; details: in vivo, read-out: Vdss
# [34] = Volume of distribution at steady state in IV-dosed cynomolgous monkey; type: ADME, Macaca fascicularis; details: cynomolgus monkey, in vivo, read-out: Vdss
# [35] = Total drug concentration in mouse brain at 3 to 75 mg/kg, po measured after 2 hrs; type: ADME, organism-based; details: dose 3-75 mg/kg, read-out: Ct
# [36] = Total unbound drug concentration in mouse brain at 3 to 75 mg/kg, po measured after 2 hrs; type: ADME, organism-based; details: in vivo, dose 3-75 mg/kg
# [37] = Cytotoxicity against human HepG2 cells; type: toxicity, cell-based
# [38] = Volume of distribution at steady state in IV-dosed rat; type: ADME; details: in vivo, read-out: Vdss
# [39] = Half life in IV-dosed rat; type: ADME; details: in vivo
# [40] = Half life in IV-dosed cynomolgous monkey; type: ADME, Macaca fascicularis; details: cynomolgus monkey, in vivo
# [41] = In vivo inhibition of DLK in mouse cerebellum at 3 to 75 mg/kg, po measured after 2 hrs; type: functional, organism-based
# [42] = Drug metabolism in human hepatocytes assessed as formation of N-methylated metabolites; type: ADME, cell-based, Hepatocyte
# [43] = Ratio of unbound drug concentration in brain to plasma of rat; type: ADME; details: brain and plasma, read-out: K(p,uu,brain)
# [44] = Unbound fraction in mouse brain at 3 to 75 mg/kg, po measured after 2 hrs; type: ADME, organism-based; details: in vivo, dose 3-75 mg/kg
# [45] = Drug metabolism in cynomolgous monkey hepatocytes assessed as formation of N-methylated metabolites; type: ADME, cell-based, Macaca fascicularis, Hepatocyte; details: cynomolgus monkey
# [46] = Oral bioavailability in dog; type: ADME, organism-based, Canis lupus familiaris; details: in vivo
# [47] = Drug metabolism in rat hepatocytes assessed as formation of N-methylated metabolites; type: ADME, cell-based, Hepatocyte
# [48] = Ratio of unbound drug concentration in brain to plasma of CD-1 mouse at 5 to 75 mg/kg, po; type: ADME, organism-based; details: brain and plasma, dose 5-75 mg/kg, read-out: K(p,uu,brain)
# Chain of Voltage-gated inwardly rectifying potassium channel KCNH2 (Q12809 whole entry): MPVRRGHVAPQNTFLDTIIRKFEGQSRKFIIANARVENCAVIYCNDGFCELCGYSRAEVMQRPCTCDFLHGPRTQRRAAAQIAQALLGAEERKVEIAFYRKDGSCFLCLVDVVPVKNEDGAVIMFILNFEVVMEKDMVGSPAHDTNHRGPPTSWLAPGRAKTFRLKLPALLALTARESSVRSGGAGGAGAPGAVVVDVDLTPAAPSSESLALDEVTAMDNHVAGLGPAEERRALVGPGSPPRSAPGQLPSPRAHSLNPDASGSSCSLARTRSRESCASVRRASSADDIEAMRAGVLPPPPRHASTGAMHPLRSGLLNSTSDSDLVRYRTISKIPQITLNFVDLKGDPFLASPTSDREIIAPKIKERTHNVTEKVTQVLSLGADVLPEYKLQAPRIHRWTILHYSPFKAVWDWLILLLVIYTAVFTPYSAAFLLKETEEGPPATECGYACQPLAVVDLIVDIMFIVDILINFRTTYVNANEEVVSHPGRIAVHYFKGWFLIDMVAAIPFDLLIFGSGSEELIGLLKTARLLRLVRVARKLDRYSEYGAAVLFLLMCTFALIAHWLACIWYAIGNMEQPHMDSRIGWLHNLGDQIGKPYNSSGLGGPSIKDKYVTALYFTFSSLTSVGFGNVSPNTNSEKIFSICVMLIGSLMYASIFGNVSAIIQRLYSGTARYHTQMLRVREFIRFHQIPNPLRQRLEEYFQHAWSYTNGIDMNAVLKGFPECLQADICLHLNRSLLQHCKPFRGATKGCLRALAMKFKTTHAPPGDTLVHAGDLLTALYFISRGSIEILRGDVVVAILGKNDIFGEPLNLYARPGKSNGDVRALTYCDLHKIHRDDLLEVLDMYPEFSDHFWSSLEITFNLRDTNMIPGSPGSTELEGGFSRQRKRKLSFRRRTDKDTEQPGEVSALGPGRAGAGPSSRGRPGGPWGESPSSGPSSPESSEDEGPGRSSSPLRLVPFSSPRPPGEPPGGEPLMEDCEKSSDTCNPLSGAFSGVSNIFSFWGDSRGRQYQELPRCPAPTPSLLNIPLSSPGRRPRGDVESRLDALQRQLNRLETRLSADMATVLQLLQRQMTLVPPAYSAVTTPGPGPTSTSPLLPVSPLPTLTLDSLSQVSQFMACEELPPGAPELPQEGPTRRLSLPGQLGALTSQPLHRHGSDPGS
# Chain of CYP3A4 (P08684 whole entry): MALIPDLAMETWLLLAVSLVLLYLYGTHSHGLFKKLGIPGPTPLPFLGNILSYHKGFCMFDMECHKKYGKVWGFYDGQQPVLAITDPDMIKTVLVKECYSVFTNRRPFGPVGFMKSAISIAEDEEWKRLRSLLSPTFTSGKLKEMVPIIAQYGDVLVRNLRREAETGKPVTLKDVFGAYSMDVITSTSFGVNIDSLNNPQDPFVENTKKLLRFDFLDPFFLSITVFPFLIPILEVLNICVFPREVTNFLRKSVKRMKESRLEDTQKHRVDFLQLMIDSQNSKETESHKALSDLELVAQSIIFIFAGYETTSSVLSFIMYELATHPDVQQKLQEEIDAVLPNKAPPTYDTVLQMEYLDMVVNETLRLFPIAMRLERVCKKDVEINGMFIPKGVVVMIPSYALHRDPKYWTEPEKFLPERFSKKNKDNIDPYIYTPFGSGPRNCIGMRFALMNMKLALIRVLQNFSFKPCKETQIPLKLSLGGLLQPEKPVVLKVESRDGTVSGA
structure (smiles),measurement,setting,value
Nc1ncc(-c2cc(N3C[C@@H]4C[C@H]3CO4)nc(N3CCC(F)(F)C3)n2)cc1OC(F)F [GDC-0134],Ki,[1],3.5 nM
same,IC50,[2],301 nM
same,Emax at 0.74 µM,[3],75%
same,IC50,[4],79 nM
same,Ki,[5],7 nM
same,EC50,[6],475 nM
CCc1nc(-c2cnc(N)c(C(F)(F)F)c2)c2ccc(C3CCN(C)CC3)cn12,efflux ratio,[7],1.6
same,Papp A→B,[8],10.6 ×10⁻⁶ cm/s
same,half-life,[9],228 min
same,bioavailability,[10],85%
same,Kp uu,[11],0.18
same,Ki,[1],0.3 nM
same,microsomal CLint,[12],3 µL/min/mg
same,solubility kinetic,[13],268 µM
same,pKa,[14],9.2
same,CL/F,[15],43 mL/min/kg
same,IC50,[4],23 nM
same,IC50,[16],< 0.4 µM
same,microsomal CLint,[17],15 µL/min/mg
CCc1nc(-c2cnc(N)c(OC(F)(F)F)c2)c2ccc([C@H]3COCCN3C)cn12,"inhibition at 0.5 h, 30 µM",CYP3A4,72%
same,efflux ratio,[7],0.7
same,Papp A→B,[8],37.6 ×10⁻⁶ cm/s
same,half-life,[9],48 min
same,bioavailability,[10],141%
same,Kp uu,[11],0.17
same,Activity,DRG neuron,Active
same,Ki,[1],0.8 nM
same,microsomal CLint,[12],6 µL/min/mg
same,solubility kinetic,[13],295 µM
same,Ki,CYP3A [18],12.4 µM
same,pKa,[14],5.8
same,CL/F,[15],40 mL/min/kg
same,kinact,CYP3A [19],0.00113 s⁻¹
same,IC50,[4],48 nM
same,IC50,[16],16 µM
same,microsomal CLint,[17],1 µL/min/mg
same,EC50,[6],305 nM
CCn1nc(-c2cnc(N)c(OC(F)F)c2)c2ccn([C@@H]3CCC(F)(F)C[C@@H]3OC)c(=O)c21,clearance,[20],5.3 mL/min/kg
same,bioavailability,[21],53%
same,"inhibition at 0.5 h, 30 µM",CYP3A4,27.5%
same,microsomal CLint,[22],5.8 µL/min/mg
same,Drug metabolism,[23],metabolite_detected
same,clearance,[24],24 mL/min/kg
same,half-life,[25],288 min
same,clearance,[26],5.5 mL/min/kg
same,half-life,[27],396 min
same,clearance,[28],8.3 mL/min/kg
same,Vd,[29],1.6 L/kg
same,Drug metabolism,[30],metabolite_detected
same,bioavailability,[31],57%
same,bioavailability,[32],52%
same,Vd,[33],8.8 L/kg
same,Ki,[1],0.69 nM
same,Vd,[34],4.8 L/kg
same,IC50,[2],95 nM
same,concentration at 2 h,[35],1000 ng/g
same,Drug uptake(free),[36],14.5 ng/g
same,microsomal CLint,[12],< 3 µL/min/mg
same,IC50,[37],52 µM
same,Vd,[38],4.3 L/kg
same,half-life,[39],432 min
same,Ki,CYP3A [18],170 µM
same,half-life,[40],720 min
same,IC50,[41],31 nM
same,Drug metabolism,[42],metabolite_detected
same,Kp uu,[43],0.6
same,Emax at 0.74 µM,[3],72%
same,Fu,[44],1.5%
same,kinact,CYP3A [19],0.00117 s⁻¹
same,IC50,[4],51 nM
same,Drug metabolism,[45],metabolite_detected
same,Ki,[5],15 nM
same,IC50,[16],9 µM
same,bioavailability,[46],81%
same,microsomal CLint,[17],18 µL/min/mg
same,Drug metabolism,[47],metabolite_detected
same,Kp uu,[48],0.3
same,EC50,[6],363 nM
CCc1nc(-c2cnc(N)c(C(F)(F)F)c2)c2ccc([C@H]3COCCN3C)cn12,efflux ratio,[7],1
same,Papp A→B,[8],16.2 ×10⁻⁶ cm/s
same,half-life,[9],36 min
same,bioavailability,[10],112%
same,Kp uu,[11],0.17
same,microsomal CLint,[12],18 µL/min/mg
same,solubility kinetic,[13],320 µM
same,CL/F,[15],68 mL/min/kg
same,microsomal CLint,[17],20 µL/min/mg

# — ChEMBL document CHEMBL6096672, “In Silico Enabled Discovery of KAI-11101, a Preclinical DLK Inhibitor for the Treatment of Neurodegenerative Disease and Neuronal Injury” (J Med Chem, 2025)
